Test results taken from patent US12357586B2, “Use of the phytocannabinoid cannabidiol (CBD) in combination with a standard anti-epileptic drug (SAED) in the treatment of epilepsy” (JAZZ PHARMACEUTICALS RESEARCH UK LIMITED, priority 2011, dated 2025).

What was measured:
[1] = tested on: pilocarpine-induced seizures; experiment: pilocarpine model of (temporal lobe) epilepsy; type: in vivo
Procedure: Isolated CBD was injected intra-peritoneally (IP) in the standard vehicle (1:1:18 ethanol:Cremophor:0.9% w/v NaCl) at doses of 50, 100 and 200 mg/kg alongside animals that received vehicle alone at a matched volume. 15 minutes later methylscopolamine (1 mg/kg; to reduce peripheral muscarinic effects of pilocarpine) was administered followed, 45 minutes later by pilocarpine (380 mg/kg, IP) administration.

grand mal patients = settings: 200-300 mg of cannabidiol plus regular medication; cited from earlier work
epileptic patients = settings: 200-300 mg of cannabidiol per day in addition to standard antiepileptic drugs; 12 epileptic patients; cited from earlier work
[2] = tested on: seizure frequency in a single patient; settings: 900-1200 mg of cannabidiol a day for 10 months; cited from earlier work
[3] = tested on: institutionalized children not responding to standard treatment; settings: 5 institutionalized children not responding to phenobarbital and phenoytin; cited from earlier work
[4] = CBD 100 mg/kg, Phenobarbitol 0 mg/kg
[5] = significance of effect, pilocarpine model
[6] = CBD 0 mg/kg, Phenobarbitol 10 mg/kg
[7] = CBD 0 mg/kg, Phenobarbitol 20 mg/kg
[8] = CBD 0 mg/kg, Phenobarbitol 40 mg/kg

C=C(C)[C@@H]1CCC(C)=C[C@H]1c1c(O)cc(CCCCC)cc1O [CBD, cannabidiol]
Onset latency [1, 4]: 500 s
Seizure free (%) [1, 4]: 0%
ALL EPISODES Mean severity of episodes [1, 5]: * (* = p < 0.05)
EPISODE 2 Severity [1, 5]: * (* = p < 0.05)
patients who remained unchanged (grand mal patients): 1
patients who showed complete improvement (grand mal patients): 3
patients who showed minor improvement (grand mal patients): 2
patients who showed partial improvement (grand mal patients): 2
unwanted effect (grand mal patients): mild sedation
improvement in seizure frequency (epileptic patients): no significant improvement in seizure frequency
seizure frequency [2]: markedly reduced

CCC1(c2ccccc2)C(=O)NC(=O)NC1=O [Phenobarbitol, phenobarbital]
Onset latency [1, 6]: 800 s
Seizure free (%) [1, 6]: 25%
Onset latency [1, 7]: 900 s
Seizure free (%) [1, 7]: 55%
Onset latency [1, 8]: 1800 s
Seizure free (%) [1, 8]: 75%

CCCCCc1cc(O)c2c(c1)OC(C)(C)[C@@H]1CCC(C)=C[C@@H]21 [THC, tetrahydrocannabinol]
seizure outcome [3]: One became entirely free of seizures, one became almost completely free of seizures, and the other three did no worse than before

CCCC(CCC)C(=O)O [Valproate, valproate]
ALL EPISODES Mean duration of episodes [1, 5]: * (* = p < 0.05)
ALL EPISODES Mean number of episodes [1, 5]: ** (** = p < 0.01)
ALL EPISODES Mean severity of episodes [1, 5]: ** (** = p < 0.01)
ALL EPISODES Mean time spent in episodes [1, 5]: * (* = p < 0.05)
ALL EPISODES Percentage episode free [1, 5]: ** (** = p < 0.01)
ALL EPISODES Percentage ≥3 episodes [1, 5]: # (# = p < 0.01)
EPISODE 1 Latency [1, 5]: ** (** = p < 0.01)
EPISODE 1 Severity [1, 5]: * (* = p < 0.05)
EPISODE 2 Duration [1, 5]: # (# = p < 0.01)
EPISODE 2 Latency [1, 5]: # (# = p < 0.01)
